Assay results as given in patent US4699921A, “Pharmaceuticals containing prostaglandin I2” (Mitsubishi Yuka Pharmaceutical Co., Ltd., priority 1984, dated 1987).
Like-named read-outs stand apart in the source and are kept apart here.

Tests used:
[1] = system: Human platelet aggregation (ADP induced); test: Human platelet aggregation inhibiting effect (in vitro); type: cell-based; conditions: human PRP, ADP 2-10 μM, 37° C., one minute preincubation, read-out: Platelet aggregation inhibiting ratio (IC50)
Protocol: Platelet aggregation inhibiting effect
Bloods were sampled from healthy voluers (22-34 years old) with no administration of drug for 2 weeks or more early in the morning when they were hungry. By use of an injector filled with 5 ml of 3.8% sodium citrate solution, 50 ml of blood was sampled, immediately stirred by turning upside down and centrifuged at 200×g for 15 minutes. The supernatant was separated as the PRP (platelet rich plasma) and the residue further subjected to centrigugation at 2000×g for 15 minutes, followed by recovery of the supernatant as PPP (poor platelet plasma) which was provided for use in the experiment.
PRP (250 μ) was placed in a cuvette, 5 μof an 1% ethanol solution of the compound of the present invention or an 1% ethanol solution was added, and incubation was carried out at 37° C. for one minute. Then, an aggregation inducing agent (ADP) was added and the process of aggregation was recorded by Aggregometer (Sienco Co.). As the concentration of ADP, the minimum concentrations of ADP (2-10 μM) to give the maximum aggregation for respective platelets were employed. The inhibition percentage of platelet aggregation was calculated by the following formula:
Inhibition percentage=(A-B)/A×100
A: Maximum aggregation ratio during addition of solvent (1% ethanol solution)
B: Maximum aggregation ratio during addition of the compound of the present invention.
The platelet aggregation inhibiting effects of the compounds of the present invention are shown in terms of IC50 values in Table 6.

gastric acid secretion = test: Antiulcer effect (2): rat gastric acid inhibiting effect (pylorus ligature); type: in vivo, male Wistar rat; conditions: subcutaneous, 100 μg/kg, 4 hours after pylorus ligature; for Amount of gastric acid secreted: solvent 73.6
Protocol: Male wistar strain rats (weighing 250-280 g) were fasted for 18 hours subjected to peritoneotomy under ether anesthesia for ligature of pylorus, and after 4 hours under abstinence from food and water, gastric juice was sampled. The gastric juice was centrifuged at 3000 rpm for 10 minutes, and then the amount, pH and acidity of the gastric juice were measured. The acidity was measured by titration by means of an automatic titrating device (Toa Denpa Kogyo) with a 0.1N NaOH to pH 7.0 and calculating according to the following formula: [formula]
The gastric juice secretion inhibition percentage was calculated according to the following formula: [formula] A: Amount of gastric acid excreted in Control group B: Amount of gastric acid excreted in Drug group
The drugs to be tested were adminsistered subcutaneously immediately after pylorus ligature.

right femoral artery = test: Vasodilative effect (perfusion pressure of femoral artery in anesthetized dogs); type: in vivo, dog; conditions: intraarterial, 100 μg/kg
Protocol: Female and male adult dogs were anesthetized by intraveneous administeration of 30 mg/kg of sodium pentobarbital and fixed on their back positions. The right femoral artery was perfused at constant flow with the dog's own blood by means of a peristaltic pump (Harvard Co.). The perfusion pressure was measured with an electromanometer and systemic blood pressure was measured in the other femoral artery with a pressure transducer. As an anticoagulant, 500 U/kg of heparin sodium was intravenously administered.
The compound of the present invention was dissolved in 10% ethanol-90% physiological salt solution and administered into arterial blood through a thick rubber tube provided in the perfusion circuit. The vasodilative effect of the compound of the present invention is expressed by the change ratio of perfusion pressure after administration into the artery.

blood pressure = test: Hypotensive effect in anesthetized rats; type: in vivo, male Wistar rat; conditions: intravenous, 10 μg/kg
Protocol: Male wistar strain rats (weighing 240-290 g) were anesthetized by intraperitoneal administration of 50 mg/kg of sodium pentobarbital, and blood pressures were measured. The compound of the present invention was administered intravenously as a solution dissolved in 10 ethanol- 90% physiological salt solution. The hypotensive effect is expressed by the percent change of average blood pressure after intravenous administration (relative to that before administration).

gastric mucosa damage = test: Antiulcer effect (1): inhibition of hydrochloric acid induced gastric mucosa damage; type: in vivo, male SD rat; conditions: oral, 25 μg/kg, 30 minutes before 1 ml of 0.6N hydrochloric acid
Protocol: Male SD-strain rats (weighing 220-255 g) were fasted for 20 hours (water was given ad libitum) and, after further abstinence from food and water for 4 hours, the compound of the present invention was administered orally, followed further by oral administration of 1 ml of 0.6N hydrochloric acid 30 minutes later. One hour after administration of hydrochloric acid, the stomach was enucleated under chloroform anesthesia. The fluid in the stomach was discharged and 7.5 ml of a 1% formalin solution was injected into the stomach to fix the gastric mucosa. Then, the stomach was dissected along the greater curvature and the length of the gastric mucosa damage was measured under a steroscopic microscope. The compound of the present invention was dissolved in 5% ethanol-95% physiological salt solution and administered at a dose of 25 μg/kg in a volume of 5 ml/kg.
The antiulcer effect of the compound of the present invention was calculated by the following formula: [formula] l: length of gastric mucosa damage in the group to which the compound of the present invention is administered;
lo: length of gastric mucosa damage in the group of non-administration of drug.

SMILES	Gastric acid secretion Inhibition (gastric acid secretion) [%]	Amount of gastric acid secreted (gastric acid secretion) [mEq/l]	IC50 ([1]; Platelet) [nM]	further results
CCCC(C)C[C@H](O)/C=C/[C@H]1[C@H]2CC(C=CCCC(=O)O)=C[C@H]2C[C@H]1O (mixture of isomers) [Compound K, 3-(4'-carboxy-1'-butenyl)-6(S)-(3'(S)-hydroxy-5'(RS)-methyl-trans-1'-octenyl)-7(R)-hydroxy-(1S,5S)-cis-bicyclo[3.3.0]oct-2-ene]	70.5	21.7	–	IC50 [1]: 2 nM
CCCCC(C)C[C@H](O)/C=C/[C@H]1[C@H]2CC(C=CCCC(=O)O)=C[C@H]2C[C@H]1O (mixture of isomers) [Compound M, 3-(4'-carboxy-1'-butenyl)-6(S)-(3'(S)-hydroxy-5'(RS)-methyl-trans-1'-nonenyl)-7(R)-hydroxy-(1S,5S)-cis-bicyclo[3.3.0]-oct-2-ene]	73.5	19.5	–	IC50 [1]: 4 nM
CCCCC[C@H](O)/C=C/[C@@H]1[C@H]2CC(C=CCCC(=O)O)=C[C@H]2C[C@H]1O [Compound A]	–	–	14	–
O=C(O)CCC=CC1=C[C@H]2C[C@@H](O)[C@H](/C=C/[C@@H](O)C3CCCC3)[C@H]2C1 [Compound B]	–	–	7	–
CC#CCC(C)[C@H](O)/C=C/[C@@H]1[C@H]2CC(C=CCCC(=O)O)=C[C@H]2C[C@H]1O (some centres unmarked) [Compound C]	–	–	0.8	–
CC(C)=CCC[C@@H](C)C[C@H](O)/C=C/[C@@H]1[C@H]2CC(C=CCCC(=O)O)=C[C@H]2C[C@H]1O [Compound D]	–	–	20	–
O=C(O)CCC=CC1=C[C@H]2C[C@@H](O)[C@H](/C=C/[C@@H](O)C3CCCCC3)[C@H]2C1 [Compound E]	–	–	5	–
CCC#CCC(C)[C@H](O)/C=C/[C@@H]1[C@H]2CC(C=CCCC(=O)O)=C[C@H]2C[C@H]1O (stereo partly drawn) [Compound F, 3-(4'-carboxy-1'-butenyl)-6(S)-(3'(S)-hydroxy-4'(RS)-methyl-trans-1'-nonen-6'-ynyl)-7(R)-hydroxy-(1S,5S)-cis-bicyclo[3.3.0]oct-2-ene]	81.8	13.4	4	–
CCC#CC(C)C[C@H](O)/C=C/[C@@H]1[C@H]2CC(C=CCCC(=O)O)=C[C@H]2C[C@H]1O (some centres unmarked) [Compound G]	–	–	0.6	–
CCCCCC(C)[C@H](O)/C=C/[C@@H]1[C@H]2CC(C=CCCC(=O)O)=C[C@H]2C[C@H]1O (stereo partly drawn) [Compound H, 3-(4'-carboxy-1'-butenyl)-6(S)-(3'(S)-hydroxy-4'(RS)-methyl-trans-1'-nonenyl-7(R)-hydroxy-1S,5S)-cis-bicyclo[3.3.0]oct-2-ene]	89.9	7.4	8	–
O=C(O)CCC=CC1=C[C@H]2C[C@@H](O)[C@H](/C=C/[C@@H](O)CCc3ccccc3)[C@H]2C1 [Compound I, 3-(4'-carboxy-1'-butenyl)-6(S)-(3'(S)-hydroxy-5'-phenyl-trans-1'-pentenyl)-7(R)-hydroxy-(1S,5S)-cis-bicyclo[3.3.0]oct-2-ene]	73.5	19.5	80	–
CCCCC(C)(C)[C@H](O)/C=C/[C@@H]1[C@H]2CC(C=CCCC(=O)O)=C[C@H]2C[C@H]1O [Compound J, 3-(4'-carboxy-1'-butenyl)-6(S)-(3'(S)-hydroxy-4',4'-dimethyl-trans-1'-octenyl)-7(R)-hydroxy-(1S,5S)-cis-bicyclo[3.3.0]oct-2-ene]	18.1	60.3	200	–
CC(C1CCCCC1)[C@H](O)/C=C/[C@@H]1[C@H]2CC(C=CCCC(=O)O)=C[C@H]2C[C@H]1O (some centres unmarked) [Compound L]	36.8	46.5	300	–
O=C(O)CCCC=C1C[C@H]2C[C@@H](O)[C@H](/C=C/[C@@H](O)C3CCCC3)[C@H]2C1 [OP-41483]	–	–	9	Perfusion pressure change (right femoral artery): -16%; Percent change of average blood pressure (blood pressure): -39%; Inhibition of gastric mucosa damage (gastric mucosa damage): -28.3%
CCCCC[C@H](O)/C=C/[C@H]1[C@H](O)CC(=O)[C@@H]1C/C=C\CCCC(=O)O [PGE2]	–	–	–	Inhibition of gastric mucosa damage (gastric mucosa damage): 61.1%
